# System: maternal HIV+ sera (antibodies)
# Assay: RIA / ELISA binding of maternal HIV+ sera to gp120 and gp41 peptides (Example 3)
# Set-up: species or system human
# Method: Radioimmunoassay (RIA) and enzyme-linked immunosorbent assay (ELISA) were performed by standard methodologies [E. Engvall, Meth. Immunol., 70:419-439 (1980); S. K. Pierce et al, J. Exp. Med., 144:1254-1262 (1976)]. Peptides were dissolved in 0.05M carbonate-bicarbonate buffer (pH 9.6) at a concentration of 10 μg/ml. Fifty μl (500 ng) of the peptides were immobilized in 96 well polyvinylchloride plates (Dynatech Laboratories, Inc.) overnight at 4° C. Plates were washed and non-specific sites were blocked with PBS containing 1% BSA overnight at 4° C.
# Dilutions of HIV positive maternal sera were made in blocking buffer at dilutions of 1:50 and 1:500 and incubated in peptide coated plates overnight at 4° C. Plates were washed with PBS and incubated with 75,000 cpm of ^125 I-labelled goat anti-human IgG. The antibody was iodinated by a chloramine T method [W. V. Williams et al, Proc. Natl. Acad. Sci. USA, 85:6488-6492 (1988)]. Plates were washed, dried and counted in a gamma counter to measure specific binding. Normal human serum (i.e., HIV seronegative) was used as a control.
# Alternatively, ELISA assays were performed in polystyrene plates (Dynatech Laboratories, Inc) in which 0.05% Tween 20 (Sigma Chemical Co.) was included in the washing, blocking and dilution buffers. The secondary antibody used was goat […] Ig conjugated to horseradish peroxidase (HRP) (Sigma Chemical Co). The substrate used for color development was 3,3',5,5' tetramethyl-benzidine dihydrochloride (TMB) (Sigma Chemical Co). Absorbance of samples was measured in a Dynatech MR5000 (Dynatech Laboratories, Inc.) plate reader and expressed as an optical density at wavelength of 450 nm (OD450).
# The following key is used for the designation of specific binding of the maternal sera samples to the peptides: The minus sign, -, is equivalent to the specific OD450 or cpm of sera sample binding to peptide divided by the specific OD450 or cpm of NHS sample binding to peptide, which value is less than 2. The plus sign, +, is equivalent to the specific OD450 or cpm of sera sample binding to peptide divided by the specific OD450 or cpm of NHS sample binding to peptide, which value is between 2 to 3.
# Specific binding is defined as the difference between the OD450 or cpm of sera to wells with peptide and the OD450 or cpm of sera to wells without peptide.
# Comparisons of number of peptides which bound maternal serum samples were made between the transmission group and the nontransmission group. The data was analyzed using the unpaired student's test. For the determination of differences in the binding of specific peptides between transmission and non-transmission groups, the Spearman's rank-order correlation test was performed.
sequence,measurement,setting,value
ATEKLWVTVYYGVPVWLEATTTL [Peptide 60],Binding of maternal sera to peptide (in words),Example 3,No binding
same,Binding of maternal HIV+ serum to peptide (sera/NHS ratio),"Serum No. 1, Non-Transmission Group","- (specific OD450 or cpm of sera sample binding to peptide divided by the specific OD450 or cpm of NHS sample binding to peptide, which value is less than 2)"
same,Binding of maternal HIV+ serum to peptide (sera/NHS ratio),"Serum No. 2, Non-Transmission Group","- (specific OD450 or cpm of sera sample binding to peptide divided by the specific OD450 or cpm of NHS sample binding to peptide, which value is less than 2)"
same,Binding of maternal HIV+ serum to peptide (sera/NHS ratio),"Serum No. 3, Non-Transmission Group","- (specific OD450 or cpm of sera sample binding to peptide divided by the specific OD450 or cpm of NHS sample binding to peptide, which value is less than 2)"
same,Binding of maternal HIV+ serum to peptide (sera/NHS ratio),"Serum No. 4, Transmission Group","- (specific OD450 or cpm of sera sample binding to peptide divided by the specific OD450 or cpm of NHS sample binding to peptide, which value is less than 2)"
same,Binding of maternal HIV+ serum to peptide (sera/NHS ratio),"Serum No. 5, Transmission Group","- (specific OD450 or cpm of sera sample binding to peptide divided by the specific OD450 or cpm of NHS sample binding to peptide, which value is less than 2)"
same,Binding of maternal HIV+ serum to peptide (sera/NHS ratio),"Serum No. 6, Non-Transmission Group","- (specific OD450 or cpm of sera sample binding to peptide divided by the specific OD450 or cpm of NHS sample binding to peptide, which value is less than 2)"
same,Binding of maternal HIV+ serum to peptide (sera/NHS ratio),"Serum No. 7, Non-Transmission Group","- (specific OD450 or cpm of sera sample binding to peptide divided by the specific OD450 or cpm of NHS sample binding to peptide, which value is less than 2)"
same,Binding of maternal HIV+ serum to peptide (sera/NHS ratio),"Serum No. 8, Non-Transmission Group","- (specific OD450 or cpm of sera sample binding to peptide divided by the specific OD450 or cpm of NHS sample binding to peptide, which value is less than 2)"
same,Binding of maternal HIV+ serum to peptide (sera/NHS ratio),"Serum No. 9, Non-Transmission Group","- (specific OD450 or cpm of sera sample binding to peptide divided by the specific OD450 or cpm of NHS sample binding to peptide, which value is less than 2)"
same,Binding of maternal HIV+ serum to peptide (sera/NHS ratio),"Serum No. 10, Transmission Group","- (specific OD450 or cpm of sera sample binding to peptide divided by the specific OD450 or cpm of NHS sample binding to peptide, which value is less than 2)"
same,Binding of maternal HIV+ serum to peptide (sera/NHS ratio),"Serum No. 11, Non-Transmission Group","- (specific OD450 or cpm of sera sample binding to peptide divided by the specific OD450 or cpm of NHS sample binding to peptide, which value is less than 2)"
same,Binding of maternal HIV+ serum to peptide (sera/NHS ratio),"Serum No. 12, Non-Transmission Group","- (specific OD450 or cpm of sera sample binding to peptide divided by the specific OD450 or cpm of NHS sample binding to peptide, which value is less than 2)"
same,Binding of maternal HIV+ serum to peptide (sera/NHS ratio),"Serum No. 13, Transmission Group","- (specific OD450 or cpm of sera sample binding to peptide divided by the specific OD450 or cpm of NHS sample binding to peptide, which value is less than 2)"
same,Binding of maternal HIV+ serum to peptide (sera/NHS ratio),"Serum No. 14, Transmission Group","- (specific OD450 or cpm of sera sample binding to peptide divided by the specific OD450 or cpm of NHS sample binding to peptide, which value is less than 2)"
same,Binding of maternal HIV+ serum to peptide (sera/NHS ratio),"Serum No. 15, Transmission Group","- (specific OD450 or cpm of sera sample binding to peptide divided by the specific OD450 or cpm of NHS sample binding to peptide, which value is less than 2)"
same,Binding of maternal HIV+ serum to peptide (sera/NHS ratio),"Serum No. 16, Non-Transmission Group","- (specific OD450 or cpm of sera sample binding to peptide divided by the specific OD450 or cpm of NHS sample binding to peptide, which value is less than 2)"
same,Binding of maternal HIV+ serum to peptide (sera/NHS ratio),"Serum No. 17, Non-Transmission Group","- (specific OD450 or cpm of sera sample binding to peptide divided by the specific OD450 or cpm of NHS sample binding to peptide, which value is less than 2)"
same,Binding of maternal HIV+ serum to peptide (sera/NHS ratio),"Serum No. 18, Non-Transmission Group","- (specific OD450 or cpm of sera sample binding to peptide divided by the specific OD450 or cpm of NHS sample binding to peptide, which value is less than 2)"
same,Binding of maternal HIV+ serum to peptide (sera/NHS ratio),"Serum No. 19, Transmission Group","- (specific OD450 or cpm of sera sample binding to peptide divided by the specific OD450 or cpm of NHS sample binding to peptide, which value is less than 2)"
same,Binding of maternal HIV+ serum to peptide (sera/NHS ratio),"Serum No. 20, Non-Transmission Group","- (specific OD450 or cpm of sera sample binding to peptide divided by the specific OD450 or cpm of NHS sample binding to peptide, which value is less than 2)"
